Test results taken from paper PMC8544286, “Screening and Identification of a Novel Anti-tuberculosis Compound That Targets Deoxyuridine 5′-Triphosphate Nucleotidohydrolase” (Frontiers in Microbiology, 2021).
Converted amounts (≈) assume the structure as drawn. Where two headings read alike, the source gives them in different places.

Columns and labels:
[1] = system: extensive drug-resistant strain XDR-XZ06008; assay: microbe, parasite or virus in culture; assay type: cell-based; settings: Mycobacterium tuberculosis, 168 h
[2] = system: extensive drug-resistant strain XDR-FJ05195; assay: microbe, parasite or virus in culture; assay type: cell-based; settings: Mycobacterium tuberculosis, 168 h
[3] = system: multidrug-resistant strain MDR-FJ05189; assay: microbe, parasite or virus in culture; assay type: cell-based; settings: Mycobacterium tuberculosis, 168 h
[4] = system: multidrug-resistant strain MDR-FJ05120; assay: microbe, parasite or virus in culture; assay type: cell-based; settings: Mycobacterium tuberculosis, 168 h
[5] = molecular target: Mt-P79A-dUTPase (Mycobacterium tuberculosis, UniProt P9WNS5, P79A); assay type: binding
[6] = […], MABA, 7 days at 37°C, read-out: MIC

| SMILES | MIC [1] [µg/mL] | MIC [2] [µg/mL] | MIC [3] [µg/mL] | MIC [4] [µg/mL] | MIC [1, 6] [µg/mL] | MIC [2, 6] [µg/mL] | MIC [3, 6] [µg/mL] | MIC [4, 6] [µg/mL] | SPR binding to Mt-P79A-dUTPase [5] |
| --- | --- | --- | --- | --- | --- | --- | --- | --- | --- |
| CO[C@H]1/C=C/O[C@@]2(C)Oc3c(C)c(O)c4c(O)c(c(/C=N/N5CCN(C)CC5)c(O)c4c3C2=O)NC(=O)/C(C)=C\C=C\[C@H](C)[C@H](O)[C@@H](C)[C@@H](O)[C@@H](C)[C@H](OC(C)=O)[C@@H]1C [Rifampicin] | > 256 | 4 (≈ 4.86 µM) | > 256 | > 256 | – | – | – | – | – |
| NNC(=O)c1ccncc1 [Isoniazid] | – | – | – | – | > 256 | > 256 | < 0.5 | 4 (≈ 29.2 µM) | – |
| C=CCn1c(/C=C/c2ccccc2)nc2ccccc21 [F0414] | – | – | – | – | 8 (≈ 30.7 µM) | 2 (≈ 7.68 µM) | 2 (≈ 7.68 µM) | 8 (≈ 30.7 µM) | much weaker affinity |
